In paper PMC8940841, “A metabolically stable PET tracer for imaging synaptic vesicle protein 2A: synthesis and preclinical characterization of [^18F]SDM-16” (European Journal of Nuclear Medicine and Molecular Imaging, 2021):
Read-outs that look alike come from different tables or passages of the source.

Assays:
[1] = conjugate acid; cited from earlier work
[2] = female rhesus macaques, 1-h voiding model; cited from earlier work
SV2A [3] = biological target: SV2A (Macaca mulatta, UniProt H9EQH8); conditions: previously determined; cited from earlier work
SV2A (Macaca mulatta, UniProt H9EQH8), sequence (H9EQH8 1-742): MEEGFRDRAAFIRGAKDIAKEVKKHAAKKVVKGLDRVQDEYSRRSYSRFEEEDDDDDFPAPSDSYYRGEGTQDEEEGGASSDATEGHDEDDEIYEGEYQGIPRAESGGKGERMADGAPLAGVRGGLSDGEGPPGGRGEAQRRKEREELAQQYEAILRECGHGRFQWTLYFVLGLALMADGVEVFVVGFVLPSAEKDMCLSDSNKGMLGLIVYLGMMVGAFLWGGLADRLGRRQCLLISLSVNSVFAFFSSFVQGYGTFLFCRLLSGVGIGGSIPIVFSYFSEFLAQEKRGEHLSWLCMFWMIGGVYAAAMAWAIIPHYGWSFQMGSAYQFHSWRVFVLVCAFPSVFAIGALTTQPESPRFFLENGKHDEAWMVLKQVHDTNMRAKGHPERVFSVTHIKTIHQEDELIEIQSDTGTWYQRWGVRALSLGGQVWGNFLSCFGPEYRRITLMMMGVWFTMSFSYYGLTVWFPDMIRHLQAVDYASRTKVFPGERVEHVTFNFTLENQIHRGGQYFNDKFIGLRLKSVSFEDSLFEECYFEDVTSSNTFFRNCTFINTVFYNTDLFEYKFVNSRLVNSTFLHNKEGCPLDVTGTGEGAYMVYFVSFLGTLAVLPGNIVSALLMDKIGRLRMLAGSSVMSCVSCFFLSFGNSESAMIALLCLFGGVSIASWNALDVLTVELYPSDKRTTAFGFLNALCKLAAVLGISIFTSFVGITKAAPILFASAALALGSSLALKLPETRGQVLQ

[4] = Plasma free fraction (fp) by ultrafiltration; assay type: in vitro ADME, rhesus monkey; conditions: monkey, plasma (separated from spiked whole blood)
Procedure: The unbound fraction of [^18F]SDM-16 in plasma (fp) of rhesus monkey was measured in triplicate using the ultrafiltration method. Briefly, [^18F]SDM-16 solution was added to 3 mL of whole blood. After incubation at ambient temperature for 5 min, the blood sample was centrifuged at 3900 rpm for 5 min. A sample of the supernatant plasma (0.3 mL) was loaded onto the reservoir of a Centrifree® Ultrafiltration device (Merck Millipore Ltd. Tullagreen, Carrigtwohill, Co. Cork, IRELAND) in triplicate and centrifuged at 1228 g for 20 min. The fp value was calculated as the ratio of radioactivity in the filtrate to that in the plasma.

[5] = Brain PET imaging with 1TC kinetic modeling; conditions: rhesus monkey, in vivo
Procedure: (§1) A total of 10 PET imaging experiments with [^18F]SDM-16 were performed in rhesus monkeys (Macaca mulatta) according to a protocol approved by the Yale University Institutional Animal Care and Use Committee (IACUC). Four monkeys were studied. […] Body temperature was maintained by a water-jacket heating pad. The animal was attached to a physiological monitor, and vital signs (heart rate, blood pressure, respirations, SPO2, EKG, ETCO2, and body temperature) were continuously monitored. A venous line was inserted in one limb for administration of radiotracer, displacement, and blocking drugs. A catheter was placed in the femoral artery in the other limb for blood sampling. Dynamic PET brain scans were performed on a Focus 220 system (Siemens Medical Solutions, Knoxville, TN, USA) with a reconstructed image resolution of approximately 1.5 mm. After a 9-min transmission scan, the radioligand was injected i.v. over 3 min. by an infusion pump. Dynamic PET scans were performed for 3 h (baseline and blocking scans) or 4 h (displacement scan).
(§2) PET images were reconstructed with built-in corrections for attenuation, normalization, scatter, randoms, and deadtime. PET brain images were registered to the animal’s MR image, which was subsequently registered to a brain atlas to define the regions of interest. Dynamic images were reconstructed using a Fourier rebinning and filtered back projection algorithm. A rhesus monkey brain atlas was used for generation of regions of interest (ROIs) and time − activity curves (TACs) for the following ROIs: amygdala, brain stem, caudate nucleus, centrum semiovale (CS), cerebellum, cingulate cortex, frontal cortex, globus pallidus, hippocampus, insula, nucleus accumbens, occipital cortex, pons, putamen, substantia nigra, temporal cortex, and thalamus.
(§3) Volume of distribution (VT, mL·cm^−3) values and the first-order kinetic rate constants of tracer (K1) were derived through 1-tissue (1T) compartment kinetic modeling with the metabolite-corrected arterial plasma input function, which was calculated as the product of the fitted total plasma curve and the parent radiotracer fraction curve. Nondisplaceable volume of distribution (VND) and SV2A occupancy by LEV was calculated using the Lassen plot [32]. Nondisplaceable binding potential (BPND) values were calculated from VT values using CS as reference region, or the VND derived from the blocking study, i.e., BPND = (VT, ROI − VT, CS)/ VT, CS or BPND = (VT/VND) -1.

SV2A [6] = experiment: Brain PET imaging with 1TC kinetic modeling
Procedure: as §1, §2, §3

[7] = Free base fraction in plasma by modified Henderson-Hasselbalch equation (Eq. 1); conditions: Eq. 1, plasma pH 7.4
SV2A [8] = conditions: 1TC, cited from earlier work
[9] = Plasma radiometabolite analysis during PET scans; assay type: in vivo, rhesus monkeys; conditions: 30 min p.i.
Procedure: Arterial blood samples were collected during the PET scans to measure the radioactivity in plasma for generation of the metabolite-corrected arterial plasma input function. Plasma radiometabolite analysis was performed using the column-switching method, following a published protocol. Briefly, arterial blood samples were collected at 3-, 8-, 15-, 30-, 60-, 90-, 120-, and 180-min post-injection (p. i.), treated with urea (8 M), filtered, and injected onto a self-packed short column (4.6 × 19 mm) eluting with 1% MeCN in water at a flow rate of 2 mL/min. The sample was then back flushed onto a Gemini-NX column (5 μm, 4.6 mm × 250 mm) eluting with 40% MeCN/60% 0.1 M ammonium formate (pH 6.4) at a flow rate of 1.2 mL/min. The eluent was fraction-collected using an automated spectrum chromatography CF-1 fraction collector. Activity in the whole blood, plasma, filtrated plasma-urea mix, filters, and HPLC fractions were counted with automatic gamma well-counter (Wizard 2, PerkinElmer). The sample recovery rate, extraction efficiency, and HPLC fraction recovery were monitored. The unmetabolized [^18F]SDM-16 parent fraction was determined as the ratio of the sum of radioactivity in fractions containing the parent compound to the total amount of radioactivity collected and fitted with inverted Gamma4 approaches.
[^18F]SDM-16 had higher metabolite-corrected plasma SUV than the other SV2A radiotracers, indicating slower plasma clearance and higher metabolic stability (Fig. 2a). Whole-blood and plasma-input functions were highly consistent between the two animals, with a stable plasma to whole-blood ratio of 0.93 ± 0.13 over the entire 180-min acquisition period (Fig. S1).

[10] = Measurement of lipophilicity (octanol / PBS pH 7.4); assay type: physicochemical; conditions: octanol/PBS pH 7.4
Procedure: The logP of [^18F]SDM-16 was determined by a method modified from previously published procedures. Briefly, an aliquot of […] (10 µCi) of the radioligand was added to a 2-mL microtube containing 0.8 mL of octanol and 0.8 mL of 1 × phosphate buffered saline (1 × PBS, pH 7.4). The mixture was vortexed for 30 s and then centrifuged at 2000 g for 2 min. A subsample of the octanol (0.1 mL) and 1 × PBS (0.5 mL) layers was evaluated with a gamma counter. The major portion of the octanol layer (0.5 mL) was diluted with another 0.3 mL of octanol, mixed with a fresh portion of 0.8 mL of PBS, vortexed, centrifuged, and analyzed as described above. This process was repeated until consistent log P values were obtained, with five consecutive equilibration procedures being performed for each logP measurement. Four separate measurements were performed for [^18F]SDM-16 on different days.

## lutidine
[1]
  pKa exp.: 6.77

## Cc1cnccc1CN1C[C@@H](c2cc(F)cc([18F])c2)CC1=O [[^18F]SynVesT-1]
[2]
  effective dose (ED): 20 µSv/MBq
SV2A [3]
  VND: 4.96 mL/cm^3
[4]
  fraction unbound at 5 min: 0.43
[5]
  fraction unbound: 0.101
SV2A [6]; Amygdala
  BPND, VND method: 4.24 ± 4.05
  BPND, VT(CS) method: 1.9 ± 1.1
  K1: 0.56 ± 0.36 mL/cm^3 per min
SV2A [6]; Anterior cingulate
  BPND, VND method: 8.44 ± 4.27
  BPND, VT(CS) method: 4.1 ± 0.7
  K1: 1.05 ± 0.66 mL/cm^3 per min
SV2A [6]; Brainstem
  BPND, VND method: 2.30 ± 0.99
  BPND, VT(CS) method: 0.8 ± 0.0
  K1: 1.37 ± 1.26 mL/cm^3 per min
SV2A [6]; Caudate
  BPND, VND method: 6.23 ± 2.96
  BPND, VT(CS) method: 3.0 ± 0.4
  K1: 0.95 ± 0.49 mL/cm^3 per min
SV2A [6]; Cerebellum
  BPND, VND method: 4.74 ± 1.81
  BPND, VT(CS) method: 2.2 ± 0.2
  K1: 0.88 ± 0.41 mL/cm^3 per min
SV2A [6]; Cingulate cortex
  BPND, VND method: 9.04 ± 3.59
  BPND, VT(CS) method: 4.5 ± 0.4
SV2A [6]; Frontal cortex
  BPND, VND method: 8.64 ± 3.59
  BPND, VT(CS) method: 4.3 ± 0.6
  K1: 0.79 ± 0.39 mL/cm^3 per min
SV2A [6]; Globus pallidus
  BPND, VND method: 3.42 ± 1.90
  BPND, VT(CS) method: 1.4 ± 0.3
  K1: 0.73 ± 0.49 mL/cm^3 per min
SV2A [6]; Guo plot of baseline VT
  in vivo Kd ratio, Kd(tracer)/Kd([^18F]SDM-16): 0.41
SV2A [6]; Hippocampus
  BPND, VND method: 5.19 ± 2.56
  BPND, VT(CS) method: 2.4 ± 0.4
  K1: 0.68 ± 0.34 mL/cm^3 per min
SV2A [6]; Insular cortex
  BPND, VND method: 8.41 ± 3.27
  BPND, VT(CS) method: 4.2 ± 0.3
  K1: 0.93 ± 0.48 mL/cm^3 per min
SV2A [6]; Mean ± SD over brain regions
  K1: 0.91 ± 0.28 mL/cm^3 per min
SV2A [6]; Nucleus accumbens
  BPND, VND method: 8.41 ± 3.54
  BPND, VT(CS) method: 4.1 ± 0.4
  K1: 0.99 ± 0.63 mL/cm^3 per min
SV2A [6]; Occipital cortex
  BPND, VND method: 7.61 ± 2.51
  BPND, VT(CS) method: 3.9 ± 0.2
  K1: 0.88 ± 0.47 mL/cm^3 per min
SV2A [6]; Putamen
  BPND, VND method: 6.41 ± 2.96
  BPND, VT(CS) method: 2.9 ± 0.4
  K1: 1.25 ± 0.82 mL/cm^3 per min
SV2A [6]; Temporal cortex
  BPND, VND method: 7.36 ± 2.64
  BPND, VT(CS) method: 3.7 ± 0.3
  K1: 0.74 ± 0.34 mL/cm^3 per min
SV2A [6]; Thalamus
  BPND, VND method: 6.59 ± 3.72
  BPND, VT(CS) method: 2.9 ± 0.7
  K1: 0.93 ± 0.71 mL/cm^3 per min
[7]
  fraction present in plasma as free base: 81%
SV2A [8]; Amygdala
  VT (baseline): 24.8 ± 8.5 mL/cm^3
SV2A [8]; Brainstem
  VT (baseline): 16.3 ± 3.6 mL/cm^3
SV2A [8]; Caudate
  VT (baseline): 35.0 ± 6.3 mL/cm^3
SV2A [8]; Centrum semiovale
  VT (baseline): 8.9 ± 2.0 mL/cm^3
SV2A [8]; Cerebellum
  VT (baseline): 28.9 ± 6.8 mL/cm^3
SV2A [8]; Cingulate cortex
  VT (baseline): 48.5 ± 8.9 mL/cm^3
SV2A [8]; Frontal cortex
  VT (baseline): 47.1 ± 9.1 mL/cm^3
SV2A [8]; Globus pallidus
  VT (baseline): 21.6 ± 4.2 mL/cm^3
SV2A [8]; Hippocampus
  VT (baseline): 30.1 ± 5.6 mL/cm^3
SV2A [8]; Insular cortex
  VT (baseline): 46.1 ± 9.2 mL/cm^3
SV2A [8]; Nucleus accumbens
  VT (baseline): 45.2 ± 7.9 mL/cm^3
SV2A [8]; Occipital cortex
  VT (baseline): 43.7 ± 10.7 mL/cm^3
SV2A [8]; Putamen
  VT (baseline): 34.6 ± 4.9 mL/cm^3
SV2A [8]; Temporal cortex
  VT (baseline): 42.2 ± 10.0 mL/cm^3
SV2A [8]; Thalamus
  VT (baseline): 34.2 ± 3.0 mL/cm^3
[9]
  parent fraction in plasma: 42 ± 13%
[10]
  logP: 2.32
